Literature values, collected in PMC9516532, “A genetically encoded BRET-based SARS-CoV-2 M^pro protease activity sensor” (Communications Chemistry, 2022).

Test system: P-gp
Details: reviewer's comment; ref ACS Infect. Dis. 2021, 7, 3, 586–597

## CC(C)C[C@H](NC(=O)OCc1ccccc1)C(=O)N[C@@H](C[C@@H]1CCNC1=O)C(O)S(=O)(=O)[O-].[Na+] (stereo partly shown) [GC376]
  P-gp substrate: known substrate of P-gp
